Data as given in US5817332A, “Transdermal drug delivery system” (priority 1994, dated 1998).
≈ marks a conversion by molar mass, not a printed value. Where two headings read alike, the source gives them in different places.

Legend:
[1] = Phase-solubility of dexmedetomidine in aqueous 2-HP-β-CD solutions (phosphate buffers, 32 °C); assay type: physicochemical; settings: for solubility at 240 h: phosphate buffer with 2-hp-β-cd, 32° C., read-out: DEX solubility
Protocol: The excess amount of the drug was added to pH 6.0, 7.0 and 8.0 phosphate buffers (142 mM) and the pHs of the suspensions were readjusted with 0.2M NaOH. The suspensions were shaken at 32° C. in a water bath for 10 days. After equilibration, the saturated solutions of DEX were filtered, diluted and the concentrations of DEX were analyzed by RP-HPLC at 210 nm.

[2] = In vitro release of DEX from silicone depot patches in diffusion cells; assay type: physicochemical; settings: trisodium phosphate in device core
Protocol: The effect of cyclodextrin on the release rate of DEX was determined using reservoir-type silicone depot patches. Typical composition of the reservoir containing the drug and CD in molar ratio 1:1 was:
______________________________________
DEX HCl 200 μg (170 μg DEX base)
Tris-buffer (TRIS), trisodium phosphate (TP), disodium phosphate (DP), sodium phosphate (MP) or the mixture of disodium and sodium phosphates (50/50) (MP/DP) were used to buffer the devices. 2-HP-β-CD was added to the device in three different ways:
1) without precomplexation with DEX
2) using an inclusion complex of DEX and CD prepared by grinding
3) using an inclusion complex of DEX and CD prepared by spray-drying
In some patches the amount of pH-adjusting agent (DP) was decreased from 1600 μg to 200 μg or 2-HP-γ-CD was used instead of β-derivative.
Silicone membranes for the devices were made of MDX-4-4210 medical grade elastomer (Dow Corning, Midland, […].) by mixing 10% (w/w) MDX-4240 curing agent with the elastomer. […]
In vitro release of DEX from the devices was determined in diffusion cells at 34 ±1° C. […] At predetermined times, samples of 250 μl were withdrawn, replaced by fresh buffer solution, and the concentration of DEX in the samples was analyzed by RP-HPLC. After each release experiment pH in the devices was measured with a microelectrode.

[3] = as pH is increased; cited from earlier work

What does the source list for Cc1cccc([C@H](C)c2cnc[nH]2)c1C [DEX, dexmedetomidine]?
influence of 2-HP-β-CD on solubility of DEX (in words) ([1]; pH 6.0, 7.0 and 8.0): the greatest as the pH of the solutions was highest; improvement of the solubility of DEX by addition of 50% (m/V) 2-HP-β-CD ([1]; pH 6.0, 7.0 and 8.0 buffers): 19-99 times; solubility at 240 h ([1]; pH 6, pH 6, 2-HP-β-CD 5 % (m/V) (35 mM)): 7060 µg/mL (≈ 35.3 mM); solubility at 240 h ([1]; pH 6, pH 6, 2-HP-β-CD 10 % (m/V) (70 mM)): 10000 µg/mL (≈ 50 mM); solubility at 240 h ([1]; pH 6, pH 6, 2-HP-β-CD 15 % (m/V) (105 mM)): 12800 µg/mL (≈ 63.9 mM); solubility at 240 h ([1]; pH 6, pH 6, 2-HP-β-CD 30 % (m/V) (209 mM)): 20900 µg/mL (≈ 105 mM); solubility at 240 h ([1]; pH 6, pH 6, 2-HP-β-CD 50 % (m/V) (349 mM)): 36800 µg/mL (≈ 184 mM); solubility at 240 h ([1]; pH 7, pH 7, 2-HP-β-CD 5 % (m/V) (35 mM)): 1600 µg/mL (≈ 7.99 mM); solubility at 240 h ([1]; pH 7, pH 7, 2-HP-β-CD 10 % (m/V) (70 mM)): 3040 µg/mL (≈ 15.2 mM); solubility at 240 h ([1]; pH 7, pH 7, 2-HP-β-CD 15 % (m/V) (105 mM)): 4910 µg/mL (≈ 24.5 mM); solubility at 240 h ([1]; pH 7, pH 7, 2-HP-β-CD 30 % (m/V) (209 mM)): 9330 µg/mL (≈ 46.6 mM); solubility at 240 h ([1]; pH 7, pH 7, 2-HP-β-CD 50 % (m/V) (349 mM)): 12800 µg/mL (≈ 64.1 mM); solubility at 240 h ([1]; pH 8, pH 8, 2-HP-β-CD 5 % (m/V) (35 mM)): 1230 µg/mL (≈ 6.15 mM); solubility at 240 h ([1]; pH 8, pH 8, 2-HP-β-CD 10 % (m/V) (70 mM)): 2260 µg/mL (≈ 11.3 mM); solubility at 240 h ([1]; pH 8, pH 8, 2-HP-β-CD 15 % (m/V) (105 mM)): 3770 µg/mL (≈ 18.8 mM); solubility at 240 h ([1]; pH 8, pH 8, 2-HP-β-CD 30 % (m/V) (209 mM)): 7200 µg/mL (≈ 35.9 mM); solubility at 240 h ([1]; pH 8, pH 8, 2-HP-β-CD 50 % (m/V) (349 mM)): 13300 µg/mL (≈ 66.2 mM); increase of DEX release rate by trisodium phosphate [2]: over 180 times; aqueous solubility (in words) [3]: drops dramatically
